From patent US20250215029A1 (Recludix Pharma, Inc., priority 2022, published 2025)

biological target: T1, pY705-STAT3 in PBMC (Homo sapiens, UniProt P40763); assay: MSD-pSTAT-PBMC Assay (pSTAT3, IL-6 stimulated); type: cell-based; settings: PBMC, compound 3 hrs, then 10 ng/mL IL-6 for 10 min; Table 115; read-out: STAT3
T1 construct: Cryopreserved Peripheral Blood Mononuclear Cells (PBMC) are from AllCells; host or cells: cryopreserved PBMC
How it was run: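 Human PBMCs were pretreated with compound for 3 h, then stimulated with 10 ng/mL IL-6 for 10 min. Lysate pY705-STAT3 was measured by MSD sandwich immunoassay (anti-STAT3 capture) and corrected for unstimulated background. Signal was normalized to DMSO, and IC50 came from variable-slope regression.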

T1 sequence (P40763 whole entry): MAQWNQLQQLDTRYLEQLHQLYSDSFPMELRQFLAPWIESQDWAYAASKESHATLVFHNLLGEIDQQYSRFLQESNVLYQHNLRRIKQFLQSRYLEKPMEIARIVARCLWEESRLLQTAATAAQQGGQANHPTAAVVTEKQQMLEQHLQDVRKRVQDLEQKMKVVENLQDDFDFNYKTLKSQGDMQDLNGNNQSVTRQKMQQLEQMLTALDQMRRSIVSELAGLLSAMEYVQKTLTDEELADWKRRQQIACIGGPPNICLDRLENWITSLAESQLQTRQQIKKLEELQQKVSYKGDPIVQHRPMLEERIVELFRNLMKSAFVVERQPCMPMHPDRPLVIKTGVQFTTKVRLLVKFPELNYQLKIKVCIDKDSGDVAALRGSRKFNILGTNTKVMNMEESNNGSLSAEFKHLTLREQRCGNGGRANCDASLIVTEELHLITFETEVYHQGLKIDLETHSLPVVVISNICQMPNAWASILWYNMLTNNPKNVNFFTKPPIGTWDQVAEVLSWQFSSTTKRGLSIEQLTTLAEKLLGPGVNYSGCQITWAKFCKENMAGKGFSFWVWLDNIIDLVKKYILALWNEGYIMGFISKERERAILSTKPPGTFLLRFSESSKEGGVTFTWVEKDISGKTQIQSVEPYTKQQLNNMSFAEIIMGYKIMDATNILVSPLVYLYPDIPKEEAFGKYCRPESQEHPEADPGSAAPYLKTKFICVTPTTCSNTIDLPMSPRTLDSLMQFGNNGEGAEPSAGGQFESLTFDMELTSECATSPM

SMILES | IC50 [nM]
CCCOC(=O)[C@H](C)N[P@](=O)(Oc1ccccc1)[C@@H](F)c1ccc2sc(C(=O)N[C@H]3C[C@@H](C)C[C@H]4CC[C@@H](C(=O)N5CC(c6cnccc6OC(C)C)C5)N4C3=O)cc2c1 (single isomer, unassigned) [Compound 1034] | < 100
CCCOC(=O)[C@H](C)NP(=O)(Cc1ccc2sc(C(=O)N[C@H]3C[C@@H](C)C[C@H]4CC[C@@H](C(=O)N5CC(c6cnccc6N(C)C)C5)N4C3=O)cc2c1)Oc1ccccc1 (stereo partly drawn) [Compound 1021, propyl (((2-(((3S,6S,8R,9aR)-3-(3-(4-(dimethylamino)pyridin-3-yl)azetidine-1-carbonyl)-8-methyl-5-oxooctahydro-1H-pyrrolo[1,2-a]azepin-6-yl)carbamoyl)benzo [b]thiophen-5-yl)methyl)(phenoxy)phosphoryl)-L-alaninate] | < 100
CCCOC(=O)[C@H](C)N[P@](=O)(Oc1ccccc1)[C@@H](F)c1ccc2sc(C(=O)N[C@H]3C[C@@H](C)C[C@H]4CC[C@@H](C(=O)N5CC(c6cnccc6OC(C)C)C5)N4C3=O)cc2c1 (single isomer, unassigned) [Compound 1033] | < 100
CCCOC(=O)[C@H](C)NP(=O)(Cc1ccc2sc(C(=O)N[C@H]3CCC[C@H]4CC[C@@H](C(=O)N5CC(c6cccnc6)C5)N4C3=O)cc2c1)OCC (stereo partly drawn) [Compound 439, propyl (ethoxy((2-(((3S,6S,9aS)-5-oxo-3-(3-(pyridin-3-yl)azetidine-1-carbonyl)octahydro-1H-pyrrolo[1,2-a]azepin-6-yl)carbamoyl)benzo [b]thiophen-5-yl)methyl)phosphoryl)-L-alaninate] | 100 to 1000
CCCOC(=O)[C@H](C)NP(=O)(Cc1ccc2sc(C(=O)N[C@H]3CCC[C@H]4CC[C@@H](C(=O)N5CC(c6cnccc6N6CCOCC6)C5)N4C3=O)cc2c1)Oc1ccccc1 (stereo partly drawn) [Compound 1038, propyl (((2-(((3S,6S,9aS)-3-(3-(4-morpholinopyridin-3-yl)azetidine-1-carbonyl)-5-oxooctahydro-1H-pyrrolo[1,2-a]azepin-6-yl)carbamoyl)benzo [b]thiophen-5-yl)methyl)(phenoxy)phosphoryl)-L-alaninate] | < 100
C[C@H](NP(=O)(Cc1ccc2sc(C(=O)N[C@H]3CCC[C@H]4CC[C@@H](C(=O)N5CC(c6cccnc6)C5)N4C3=O)cc2c1)Oc1ccccc1)C(=O)OCC(C)(C)C (stereo partly drawn) [Compound 256, neopentyl (((2-(((3S,6S,9aS)-5-oxo-3-(3-(pyridin-3-yl)azetidine-1-carbonyl)octahydro-1H-pyrrolo[1,2-a]azepin-6-yl)carbamoyl)benzo [b]thiophen-5-yl)methyl)(phenoxy)phosphoryl)-L-alaninate] | < 100
CC(C)CC(=O)SCCOP(=O)(OCOC(=O)OC1COC1)C(F)(F)c1ccc2sc(C(=O)N[C@H]3CCC[C@H]4CC[C@@H](C(=O)N5CC(c6ncccn6)C5)N4C3=O)cc2c1 (stereo partly drawn) [Compound 1095, S-(2-(((difluoro(2-(((3S,6S,9aS)-5-oxo-3-(3-(pyrimidin-2-yl)azetidine-1-carbonyl)octahydro-1H-pyrrolo[1,2-a]azepin-6-yl)carbamoyl)benzo [b]thiophen-5-yl)methyl) ((((oxetan-3-yloxy)carbonyl)oxy)methoxy)phosphoryl)oxy)ethyl) 3-methyl-butanethioate] | < 100
COC1(c2cnccc2C)CN(C(=O)[C@@H]2CC[C@@H]3CCC[C@H](NC(=O)c4cc5cc(C(F)(F)P(=O)(OCCSC(=O)CC(C)C)OCCSC(=O)CC(C)C)ccc5s4)C(=O)N32)C1 [Compound 963, S,S′-((((difluoro(2-(((3S,6S,9aS)-3-(3-methoxy-3-(4-methylpyridin-3-yl)azetidine-1-carbonyl)-5-oxooctahydro-1H-pyrrolo[1,2-a]azepin-6-yl)carbamoyl)benzo [b]thiophen-5-yl)methyl)phosphoryl)bis(oxy))bis(ethane-2,1-diyl)) bis(3-methylbutanethioate)] | 100 to 1000
CCCOC(=O)[C@H](C)N[P@@](=O)(Oc1ccccc1)[C@@H](F)c1ccc2sc(C(=O)N[C@H]3C[C@@H](C)C[C@H]4CC[C@@H](C(=O)N5CC(c6cnccc6C)C5)N4C3=O)cc2c1 (single isomer, unassigned) [Compound 1037] | < 100
CCCOC(=O)[C@H](C)N[P@@](=O)(Oc1ccccc1)[C@@H](F)c1ccc2sc(C(=O)N[C@H]3CCC[C@H]4CC[C@@H](C(=O)N5CC(c6cccnc6)C5)N4C3=O)cc2c1 [Compound 447] | < 100
CCCOC(=O)[C@H](C)NP(=O)(Oc1ccccc1)C(F)c1ccc2sc(C(=O)N[C@H]3CCC[C@H]4CC[C@@H](C(=O)N5CC(c6cnccc6O)C5)N4C3=O)cc2c1 (stereo partly drawn) [Compound 974, propyl ((fluoro(2-(((3S,6S,9aS)-3-(3-(4-hydroxypyridin-3-yl)azetidine-1-carbonyl)-5-oxooctahydro-1H-pyrrolo[1,2-a]azepin-6-yl)carbamoyl)benzo [b]thiophen-5-yl)methyl)(phenoxy)phosphoryl)-L-alaninate] | 100 to 1000
CCCCOC(=O)[C@H](C)NP(=O)(Cc1ccc2sc(C(=O)N[C@H]3CCC[C@H]4CC[C@@H](C(=O)N5CC(c6cccnc6)C5)N4C3=O)cc2c1)N[C@@H](C)C(=O)OCCCC [Compound 420, dibutyl 2,2′-((((2-(((3S,6S,9aS)-5-oxo-3-(3-(pyridin-3-yl)azetidine-1-carbonyl)octahydro-1H-pyrrolo[1,2-a]azepin-6-yl)carbamoyl)benzo [b]thiophen-5-yl)methyl)phosphoryl)bis(azanediyl)) (2S,2′S)-dipropionate] | 100 to 1000
Cn1cnnc1C1CN(C(=O)[C@@H]2CC[C@@H]3CCC[C@H](NC(=O)c4cc5cc(C(F)(F)P(=O)(OCCSC(=O)C(C)(C)C)OCCSC(=O)C(C)(C)C)ccc5s4)C(=O)N32)C1 [Compound 967, S,S′-((((difluoro(2-(((3S,6S,9aS)-3-(3-(4-methyl-4H-1,2,4-triazol-3-yl)azetidine-1-carbonyl)-5-oxooctahydro-1H-pyrrolo[1,2-a]azepin-6-yl)carbamoyl)benzo [b]thiophen-5-yl)methyl)phosphoryl)bis(oxy))bis(ethane-2,1-diyl)) bis(2,2-dimethyl-propanethioate)] | < 100
CCCOC(=O)[C@H](C)NP(=O)(Cc1ccc2sc(C(=O)N[C@H]3CCC[C@H]4CC[C@@H](C(=O)N5CC(c6cnccc6O)C5)N4C3=O)cc2c1)Oc1ccccc1 (stereo partly drawn) [Compound 975, propyl (((2-(((3S,6S,9aS)-3-(3-(4-hydroxypyridin-3-yl)azetidine-1-carbonyl)-5-oxooctahydro-1H-pyrrolo[1,2-a]azepin-6-yl)carbamoyl)benzo [b]thiophen-5-yl)methyl)(phenoxy)phosphoryl)-L-alaninate] | < 100
CCCCOC(=O)[C@@H]1CC(F)(F)CN1P(=O)(Oc1ccccc1)C(F)(F)c1ccc2sc(C(=O)N[C@H]3CCC[C@H]4CC[C@@H](C(=O)N5CC(c6cccnc6)C5)N4C3=O)cc2c1 (stereo partly drawn) [Compound 323, butyl (2S)-1-((difluoro(2-(((3S,6S,9aS)-5-oxo-3-(3-(pyridin-3-yl)azetidine-1-carbonyl)octahydro-1H-pyrrolo[1,2-a]azepin-6-yl)carbamoyl)benzo [b]thiophen-5-yl)methyl)(phenoxy)phosphoryl)-4,4-difluoropyrrolidine-2-carboxylate] | > 3000
COC[C@H](NP(=O)(Cc1ccc2sc(C(=O)N[C@H]3CCC[C@H]4CC[C@@H](C(=O)N5CC(c6cccnc6)C5)N4C3=O)cc2c1)Oc1ccccc1)C(=O)OC(C)C (stereo partly drawn) [Compound 392, isopropyl O-methyl-N-(((2-(((3S,6S,9aS)-5-oxo-3-(3-(pyridin-3-yl)azetidine-1-carbonyl)octahydro-1H-pyrrolo[1,2-a]azepin-6-yl)carbamoyl)benzo [b]thiophen-5-yl)methyl)(phenoxy)phosphoryl)-L-serinate] | 100 to 1000
CCCOC(=O)[C@H](C)N[P@](=O)(Oc1ccccc1)[C@H](F)c1ccc2sc(C(=O)N[C@H]3CCC[C@H]4CC[C@@H](C(=O)N5CC(c6cnccc6F)C5)N4C3=O)cc2c1 (single isomer, unassigned) [Compound 997] | < 100
CCCOC(=O)[C@H](C)NP(=O)(Cc1ccc2sc(C(=O)N[C@H]3C[C@@H](C)C[C@H]4CC[C@@H](C(=O)N5CC(c6cncnc6N6CCC6)C5)N4C3=O)cc2c1)Oc1ccccc1 (stereo partly drawn) [Compound 1074, propyl (((2-(((3S,6S,8R,9aR)-3-(3-(4-(azetidin-1-yl)pyrimidin-5-yl)azetidine-1-carbonyl)-8-methyl-5-oxooctahydro-1H-pyrrolo[1,2-a]azepin-6-yl)carbamoyl)benzo [b]thiophen-5-yl)methyl)(phenoxy)phosphoryl)-L-alaninate] | < 100
Cc1ccncc1C1CN(C(=O)[C@@H]2CC[C@@H]3CCC[C@H](NC(=O)c4cc5cc(CP(=O)(N[C@@H](C)C(=O)OC(C)C)Oc6ccccc6)ccc5s4)C(=O)N32)C1 (stereo partly drawn) [Compound 298, isopropyl (((2-(((3S,6S,9aS)-3-(3-(4-methylpyridin-3-yl)azetidine-1-carbonyl)-5-oxooctahydro-1H-pyrrolo[1,2-a]azepin-6-yl)carbamoyl)benzo [b]thiophen-5-yl)methyl)(phenoxy)phosphoryl)-L-alaninate] | 100 to 1000
COC1(c2cccnc2)CN(C(=O)[C@@H]2CC[C@@H]3CCCC[C@H](NC(=O)c4cc5cc(CP(=O)(N[C@@H](C)C(=O)OCC(C)C)Oc6ccccc6)ccc5s4)C(=O)N32)C1 (stereo partly drawn) [Compound 281, isobutyl (((2-(((3S,6S,10aS)-3-(3-methoxy-3-(pyridin-3-yl)azetidine-1-carbonyl)-5-oxodecahydropyrrolo [1,2-a]azocin-6-yl)carbamoyl)benzo [b]thiophen-5-yl)methyl)(phenoxy)phosphoryl)-L-alaninate] | < 100
